Measured values published in the NIST ThermoML archive (doi:10.1021/je900785z).
Numbers after ± are expanded uncertainties.

Details: 298.15 K; 101.33 kPa; Liquid

Point of comparison: `CCCCCCCCC` [nonane], mass density 714.064 ± 1.3 kg/m3. Against it:
- CCCCCCC [heptane] — lower, 679.627 ± 0.85 kg/m3
- CCCCCCCCCC [decane] — higher, 726.357 ± 1.2 kg/m3
- CC(C)CC(C)(C)C [2,2,4-trimethylpentane] — lower, 687.757 ± 0.84 kg/m3
- CCCCCCCC [octane] — lower, 698.636 ± 1.3 kg/m3

Same assay, conditions: Crystal; visual observation

`O=C1CCCCCN1` [1-aza-2-cycloheptanone] gave a Normal melting temperature of 69.06 ± 0.39 °C.
